Assay results published in patent US20230265151A1, “GIP/GLP1 CO-AGONIST COMPOUNDS” (priority 2020, published 2023).
Like-named read-outs stand apart in the source and are kept apart here.

Experiments:
Format in all cases: cell-based
[1] = target: T1, hGCGR (Homo sapiens, UniProt P47871); test: Functional cAMP formation (HTRF) in HEK-293 clonal cells expressing hGCGR, 0.1% bovine casein, without or with 1.0% human serum albumin; conditions: geometric mean
T1 construct: expressed in transfected cells
Procedure, shortened: (§1)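 Readings of the HTRF 665/620 nm ratio, which falls as cAMP rises, were converted to nM cAMP using a standard curve after 30 min peptide exposure at 37° C.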

[2] = target: T2, hGIPR (Homo sapiens, UniProt P48546); test: Functional cAMP formation (HTRF) in HEK-293 clonal cells expressing hGIPR, 0.1% bovine casein, without or with 1.0% human serum albumin; conditions: for EC50: geometric mean; for Emax: read-out: hGIPR Emax, % ± SEM
T2 construct: expressed in transfected cells
T2 sequence (P48546 22-466): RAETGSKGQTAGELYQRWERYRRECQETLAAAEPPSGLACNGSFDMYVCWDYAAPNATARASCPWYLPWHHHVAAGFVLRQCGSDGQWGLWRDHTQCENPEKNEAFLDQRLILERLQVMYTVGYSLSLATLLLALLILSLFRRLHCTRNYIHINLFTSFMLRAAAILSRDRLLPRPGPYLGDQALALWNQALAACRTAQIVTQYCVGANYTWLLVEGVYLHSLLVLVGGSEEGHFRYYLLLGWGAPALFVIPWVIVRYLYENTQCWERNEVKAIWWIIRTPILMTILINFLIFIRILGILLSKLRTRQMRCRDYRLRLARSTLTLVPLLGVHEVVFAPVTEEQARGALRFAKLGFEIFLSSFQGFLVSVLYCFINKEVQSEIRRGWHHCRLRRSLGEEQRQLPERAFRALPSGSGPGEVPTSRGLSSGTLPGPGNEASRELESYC
Procedure, shortened: as §1

[3] = target: hGLP-1R (Homo sapiens, UniProt P43220); test: Functional cAMP formation (HTRF) in HEK-293 clonal cells expressing hGLP-1R, 0.1% bovine casein, without or with 1.0% human serum albumin; parameters: expressed in transfected cells; conditions: for EC50: geometric mean
Procedure, shortened: as §1

[4] = 0.1% bovine casein and 1.0% human serum albumin, 37° C., read-out: hGCGR EC50, nM (SEM, n)
[5] = cAMP, incubated at 37° C., 0.1% bovine casein (no human serum albumin), read-out: hGCGR EC50, nM (SEM, n)
[6] = 0.1% bovine casein and 1.0% human serum albumin, 37° C., read-out: hGIPR EC50, nM (SEM, n)
[7] = HEK293, 0.1% bovine casein and 1.0% human serum albumin, 37° C., percent of maximal response to GIP(1-42)NH2
[8] = cAMP, incubated at 37° C., 0.1% bovine casein (no human serum albumin), read-out: hGIPR EC50, nM (SEM, n)
[9] = 0.1% bovine casein and 1.0% human serum albumin, 37° C., read-out: hGLP-1R EC50, nM (SEM, n)
[10] = HEK293, percent of maximal response to GIP(1-42)NH2, 37° C., 0.1% bovine casein, arithmetic mean
[11] = cAMP, incubated at 37° C., 0.1% bovine casein (no human serum albumin), read-out: hGLP-1R EC50, nM (SEM, n)

T1 sequence (P47871 26-477): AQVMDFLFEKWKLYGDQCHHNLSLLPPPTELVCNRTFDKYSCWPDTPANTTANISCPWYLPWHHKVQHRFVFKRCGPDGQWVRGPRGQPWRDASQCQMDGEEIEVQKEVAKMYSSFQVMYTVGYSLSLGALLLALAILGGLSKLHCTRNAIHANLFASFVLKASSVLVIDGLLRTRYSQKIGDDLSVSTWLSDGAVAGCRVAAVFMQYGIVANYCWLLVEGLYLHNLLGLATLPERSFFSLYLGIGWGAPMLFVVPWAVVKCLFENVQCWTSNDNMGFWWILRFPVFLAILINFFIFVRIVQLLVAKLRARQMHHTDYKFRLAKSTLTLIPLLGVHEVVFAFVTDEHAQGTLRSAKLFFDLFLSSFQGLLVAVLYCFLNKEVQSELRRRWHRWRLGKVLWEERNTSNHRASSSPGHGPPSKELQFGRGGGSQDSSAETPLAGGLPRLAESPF
Chain of hGLP-1R (P43220 24-463): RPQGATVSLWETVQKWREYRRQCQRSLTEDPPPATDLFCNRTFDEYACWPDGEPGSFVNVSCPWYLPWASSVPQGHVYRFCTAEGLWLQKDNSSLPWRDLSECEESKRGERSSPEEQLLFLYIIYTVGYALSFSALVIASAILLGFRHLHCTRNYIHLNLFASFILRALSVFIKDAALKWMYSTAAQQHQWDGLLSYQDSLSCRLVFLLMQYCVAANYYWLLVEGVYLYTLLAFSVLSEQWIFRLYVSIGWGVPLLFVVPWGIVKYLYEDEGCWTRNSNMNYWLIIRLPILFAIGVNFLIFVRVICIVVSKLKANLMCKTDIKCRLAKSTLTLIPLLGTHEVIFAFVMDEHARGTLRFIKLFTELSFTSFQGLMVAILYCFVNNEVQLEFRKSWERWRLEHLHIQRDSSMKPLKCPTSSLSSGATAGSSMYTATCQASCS

Row | SMILES | EC50 [1, 4] [nM] | EC50 [1, 5] [nM] | EC50 [2, 6] [nM] | Emax [2, 7] [%] | EC50 [2, 8] [nM] | EC50 [3, 9] [nM] | Emax [2, 10] [%] | EC50 [3, 11] [nM] | EC50 ([1]; hGCGR EC50, nM (SEM, n), cAMP, incubated at 37° C., 0.1% bovine casein (no human serum albumin)) [nM] | EC50 ([2]; hGIPR EC50, nM (SEM, n), cAMP, incubated at 37° C., 0.1% bovine casein (no human serum albumin)) [nM] | EC50 ([3]; hGLP-1R EC50, nM (SEM, n), cAMP, incubated at 37° C., 0.1% bovine casein (no human serum albumin)) [nM] | Emax ([3]; HEK293, percent of maximal response to GLP-1(7-36)NH2, 37° C., 0.1% bovine casein, arithmetic mean, read-out: hGLP-1R Emax, % ± SEM) [%]
1 | CC[C@H](C)[C@H](NC(=O)[C@H](CC(C)C)NC(=O)[C@](C)(Cc1ccc(O)cc1)NC(=O)[C@@H](CCC(=O)O)NC(=O)[C@@H](NC(=O)[C@H](Cc1ccccc1)NC(=O)[C@H](CCC(=O)O)NC(=O)C(C)(C)NC(=O)[C@H](CCC(N)=O)NC(=O)[C@H](C)NC(=O)[C@H](CCCCNC(=O)COCCOCCNC(=O)COCCOCCNC(=O)CC[C@H](NC(=O)CCCc1ccc(C(C)(C)C)cc1)C(=O)O)NC(=O)[C@H](CCCN)NC(=O)[C@H](CC(=O)O)NC(=O)[C@H](CC(C)C)NC(=O)[C@](C)(CC(C)C)NC(=O)[C@@H](NC(=O)[C@H](CO)NC(=O)[C@H](Cc1ccncc1)NC(=O)[C@H](CC(=O)O)NC(=O)[C@H](CO)NC(=O)[C@@H](NC(=O)[C@](C)(Cc1ccccc1F)NC(=O)[C@@H](NC(=O)CNC(=O)[C@H](CCC(=O)O)NC(=O)C(C)(C)NC(=O)[C@@H](N)Cc1ccc(O)cc1)[C@@H](C)O)[C@@H](C)O)[C@@H](C)CC)[C@@H](C)CC)C(=O)N[C@@H](CCCCNC(=O)COCCOCCNC(=O)COCCOCCNC(=O)CC[C@H](NC(=O)CCCc1ccc(C(C)(C)C)cc1)C(=O)O)C(=O)NCC(=O)NCC(=O)N1CCC[C@H]1C(=O)N[C@@H](CO)C(=O)N[C@@H](CO)C(=O)NCC(=O)N[C@@H](C)C(=O)N1CCC[C@H]1C(=O)N1CCC[C@H]1C(=O)N1CCC[C@H]1C(=O)N[C@@H](CO)C(N)=O [Example 133] | > 9950 | > 9950 | 0.0695 | 89.1 ± 4.64 | 0.018 | 1.17 | – | – | – | – | – | –
2 | CC[C@H](C)[C@H](NC(=O)[C@H](CC(C)C)NC(=O)[C@](C)(Cc1ccc(O)cc1)NC(=O)[C@@H](CCC(=O)O)NC(=O)[C@@H](NC(=O)[C@H](Cc1ccccc1)NC(=O)[C@H](CCC(=O)O)NC(=O)C(C)(C)NC(=O)[C@H](CCC(N)=O)NC(=O)[C@H](C)NC(=O)[C@H](CCCCNC(=O)COCCOCCNC(=O)COCCOCCNC(=O)CC[C@H](NC(=O)CCCc1ccc(C(C)(C)C)cc1)C(=O)O)NC(=O)[C@H](CCCN)NC(=O)[C@H](CC(=O)O)NC(=O)[C@H](CC(C)C)NC(=O)[C@](C)(CC(C)C)NC(=O)[C@@H](NC(=O)[C@H](CO)NC(=O)[C@H](Cc1ccncc1)NC(=O)[C@H](CC(=O)O)NC(=O)[C@H](CO)NC(=O)[C@@H](NC(=O)[C@](C)(Cc1ccccc1F)NC(=O)[C@@H](NC(=O)CNC(=O)[C@H](CCC(=O)O)NC(=O)C(C)(C)NC(=O)[C@@H](N)Cc1ccc(O)cc1)[C@@H](C)O)[C@@H](C)O)[C@@H](C)CC)[C@@H](C)CC)C(=O)N[C@@H](CCC(=O)O)C(=O)NCC(=O)NCC(=O)N1CCC[C@H]1C(=O)N[C@@H](CO)C(=O)N[C@@H](CO)C(=O)NCC(=O)N[C@@H](C)C(=O)N1CCC[C@H]1C(=O)N1CCC[C@H]1C(=O)N1CCC[C@H]1C(=O)N[C@@H](CO)C(=O)N[C@@H](CCCCNC(=O)COCCOCCNC(=O)COCCOCCNC(=O)CC[C@H](NC(=O)CCCc1ccc(C(C)(C)C)cc1)C(=O)O)C(N)=O [Example 135] | > 9950 | > 9950 | 0.0609 | 91.2 ± 4.78 | 0.0184 | 0.936 | 92.3 ± 2.64 | 0.271 | – | – | – | –
3 | CCCCCCCCCCCC(=O)N[C@@H](CCC(=O)NCCOCCOCC(=O)NCCOCCOCC(=O)NCCCC[C@H](NC(=O)[C@H](CCCN)NC(=O)[C@H](CC(=O)O)NC(=O)[C@H](CC(C)C)NC(=O)[C@](C)(CC(C)C)NC(=O)[C@@H](NC(=O)[C@H](CO)NC(=O)[C@H](Cc1ccncc1)NC(=O)[C@H](CC(=O)O)NC(=O)[C@H](CO)NC(=O)[C@@H](NC(=O)[C@](C)(Cc1ccccc1F)NC(=O)[C@@H](NC(=O)CNC(=O)[C@H](CCC(=O)O)NC(=O)C(C)(C)NC(=O)[C@@H](N)Cc1ccc(O)cc1)[C@@H](C)O)[C@@H](C)O)[C@@H](C)CC)C(=O)N[C@@H](C)C(=O)N[C@@H](CCC(N)=O)C(=O)NC(C)(C)C(=O)N[C@@H](CCC(=O)O)C(=O)N[C@@H](Cc1ccccc1)C(=O)N[C@H](C(=O)N[C@@H](CCCCNC(=O)COCCOCCNC(=O)COCCOCCNC(=O)CC[C@H](NC(=O)CCCCCCCCCCC)C(=O)O)C(=O)N[C@@](C)(Cc1ccc(O)cc1)C(=O)N[C@@H](CC(C)C)C(=O)N[C@H](C(=O)N[C@@H](CCC(=O)O)C(=O)NCC(=O)NCC(=O)N1CCC[C@H]1C(=O)N[C@@H](CO)C(=O)N[C@@H](CO)C(=O)NCC(=O)N[C@@H](C)C(=O)N1CCC[C@H]1C(=O)N1CCC[C@H]1C(=O)N1CCC[C@H]1C(=O)N[C@@H](CO)C(N)=O)[C@@H](C)CC)[C@@H](C)CC)C(=O)O [Example 138] | – | – | – | – | – | – | – | – | > 9950 | 0.0197 | 0.267 | –
4 | CCCCCCCCCCCC(=O)N[C@@H](CCC(=O)NCCOCCOCC(=O)NCCOCCOCC(=O)NCCCC[C@H](NC(=O)[C@H](CCCN)NC(=O)[C@H](CC(=O)O)NC(=O)[C@H](CC(C)C)NC(=O)[C@](C)(CC(C)C)NC(=O)[C@@H](NC(=O)[C@H](CO)NC(=O)[C@H](Cc1ccncc1)NC(=O)[C@H](CC(=O)O)NC(=O)[C@H](CO)NC(=O)[C@@H](NC(=O)[C@](C)(Cc1ccccc1F)NC(=O)[C@@H](NC(=O)CNC(=O)[C@H](CCC(=O)O)NC(=O)C(C)(C)NC(=O)[C@@H](N)Cc1ccc(O)cc1)[C@@H](C)O)[C@@H](C)O)[C@@H](C)CC)C(=O)N[C@@H](C)C(=O)N[C@@H](CCC(N)=O)C(=O)NC(C)(C)C(=O)N[C@@H](CCC(=O)O)C(=O)N[C@@H](Cc1ccccc1)C(=O)N[C@H](C(=O)N[C@H](CCC(=O)O)C(=O)N[C@@](C)(Cc1ccc(O)cc1)C(=O)N[C@@H](CC(C)C)C(=O)N[C@H](C(=O)N[C@@H](CCC(=O)O)C(=O)NCC(=O)N[C@@H](CCCCNC(=O)COCCOCCNC(=O)COCCOCCNC(=O)CC[C@H](NC(=O)CCCCCCCCCCC)C(=O)O)C(=O)N1CCC[C@H]1C(=O)N[C@@H](CO)C(=O)N[C@@H](CO)C(=O)NCC(=O)N[C@@H](C)C(=O)N1CCC[C@H]1C(=O)N1CCC[C@H]1C(=O)N1CCC[C@H]1C(=O)N[C@@H](CO)C(N)=O)[C@@H](C)CC)[C@@H](C)CC)C(=O)O [Example 140] | – | > 9950 | – | – | 0.0121 | – | 98.5 ± 1.71 | 0.131 | – | – | – | –
5 | CC[C@H](C)[C@H](NC(=O)[C@H](CC(C)C)NC(=O)[C@](C)(Cc1ccc(O)cc1)NC(=O)[C@@H](CCC(=O)O)NC(=O)[C@@H](NC(=O)[C@H](Cc1ccccc1)NC(=O)[C@H](CCC(=O)O)NC(=O)C(C)(C)NC(=O)[C@H](CCC(N)=O)NC(=O)[C@H](C)NC(=O)[C@H](CCCCNC(=O)COCCOCCNC(=O)COCCOCCNC(=O)CC[C@H](NC(=O)CCCCCCCCCCCCC(=O)O)C(=O)O)NC(=O)[C@H](CCCN)NC(=O)[C@H](CC(=O)O)NC(=O)[C@H](CC(C)C)NC(=O)[C@](C)(CC(C)C)NC(=O)[C@@H](NC(=O)[C@H](CO)NC(=O)[C@H](Cc1cscn1)NC(=O)[C@H](CC(=O)O)NC(=O)[C@H](CO)NC(=O)[C@@H](NC(=O)[C@](C)(Cc1ccccc1F)NC(=O)[C@@H](NC(=O)CNC(=O)[C@H](CCC(=O)O)NC(=O)C(C)(C)NC(=O)[C@@H](N)Cc1ccc(O)cc1)[C@@H](C)O)[C@@H](C)O)[C@@H](C)CC)[C@@H](C)CC)C(=O)N[C@@H](CCC(=O)O)C(=O)NCC(=O)NCC(=O)N[C@@H](CCCCNC(=O)COCCOCCNC(=O)COCCOCCNC(=O)CC[C@H](NC(=O)CCCCCCCCCCCCC(=O)O)C(=O)O)C(=O)N[C@@H](CO)C(=O)N[C@@H](CO)C(=O)NCC(=O)N[C@@H](C)C(=O)N1CCC[C@H]1C(=O)N1CCC[C@H]1C(=O)N1CCC[C@H]1C(=O)N[C@@H](CO)C(N)=O [Example 144] | – | > 9950 | – | – | 0.0193 | – | 90 | 3.47 | – | – | – | 97
